How the values were obtained:
FLK-1 receptor = assay: FLK-1 Assay (cellular/catalytic ELISA, VEGF-stimulated phosphotyrosine); type: cell-based; design: concentration or dose not given beside the values
In short: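 Receptor phosphotyrosine ELISA: Flk-1-expressing NIH3T3 C7#3 cells, starved overnight in 0.1% FBS medium, received compound (1:200 final dilution, 0.5% DMSO) for 2 h at 37 °C, then VEGF. Anti-FLK-1-captured receptor was probed with anti-phosphotyrosine UB40 and peroxidase/ABTS read-out, relative to cells without compound.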

PDGF-R = PDGF-R Assay (cellular ELISA, U1242 cells); type: cell-based; design: concentration or dose not given beside the values
In short: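 Cellular ELISA for receptor autophosphorylation: after 2 hr test-compound treatment of serum-free U1242 cells at 37°C, ligand is added for 5–10 min, cells are lysed (HNTG) and receptor captured by specific antibody. Anti-phosphotyrosine plus secondary antibody with ABTS colour read at 410/630 nm, compared with compound-free control cells.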

SMILES | Flk Kinase % Inhibition (P.110) (FLK-1 receptor) [%] | PDGF Kinase % Inhibition (P.119) (PDGF-R) [%]
COc1c(Cl)cc(C=C2C(=O)Nc3c(Br)cc(Br)c(C)c32)cc1C(C)(C)C [10732/H09] | 5.4 | −14.4
Cc1c(Br)cc(Br)c2c1C(=Cc1cc(Cl)c(OCc3ccccc3)c(C(C)(C)C)c1)C(=O)N2 [10732/H10] | 3.3 | −21.0
COc1c(I)cc(C=C2C(=O)Nc3c(Br)cc(Br)c(C)c32)cc1C(C)(C)C [10732/H11] | 6.4 | −16.0
Cc1c(Br)cc(Br)c2c1C(=Cc1cc(I)c(OCc3ccccc3)c(C(C)(C)C)c1)C(=O)N2 [10733/H02] | −2.0 | −5.6
COc1c([N+](=O)[O-])cc(C=C2C(=O)Nc3c(Br)cc(Br)c(C)c32)cc1C(C)(C)C [10733/H03] | 31.2 | 16.8
COc1c(C(C)(C)C)cc(C=C2C(=O)Nc3c(Br)cc(Br)c(C)c32)cc1C(C)(C)C [10733/H04] | −8.5 | −14.5
Cc1c(Br)cc(Br)c2c1C(=Cc1cc(C(C)(C)C)c(OCc3ccccc3)c(C(C)(C)C)c1)C(=O)N2 [10733/H05] | 17.7 | −15.3
COc1c(C)cc(C=C2C(=O)Nc3c(Br)cc(Br)c(C)c32)cc1C [10733/H06] | 30.0 | −12.9
Cc1cc(C=C2C(=O)Nc3c(Br)cc(Br)c(C)c32)cc(C)c1OCc1ccccc1 [10733/H07] | 7.6 | −19.0
COc1cc(Br)cc(C=C2C(=O)Nc3c(Br)cc(Br)c(C)c32)c1O [10733/H08] | 4.8 | −15.3
Cc1c(Br)cc(Br)c2c1C(=Cc1cc(Br)ccc1O)C(=O)N2 [10733/H09] | 44.8 | 5.0
Cc1c(Br)cc(Br)c2c1C(=Cc1cc([N+](=O)[O-])ccc1O)C(=O)N2 [10733/H10] | 12.6 | 10.7
COc1c(O)ccc(C=C2C(=O)Nc3c(Br)cc(Br)c(C)c32)c1[N+](=O)[O-] [10733/H11] | 29.1 | −4.8

— patent US20020026053A1, “Novel 3-(substituted) -2- indolinones compounds and use thereof as inhibitors of protein kinase activity” (priority 1997, published 2002)
